# Laboratory results from US7714150B2, “Aminoalkyl-amidomethyl-substituted 2-(4-sulphonylamino)-3-hydroxy-3,4-dihydro-2H-chroman-6-yl derivatives” (Solvay Pharmaceuticals GmbH, priority 2005, dated 2010).
# Tested on: left atrium of rats' hearts
# Test: Functional refractory period prolongation on isolated left atria of rats' hearts in vitro
# Set-up: species or system rat
# Details: 10 μM
# Experimental: In this test model it is determined to what extent the Kv1.5-blocking substances of Formula I result in a prolongation of the functional refractory period in the left atrium of rats. The refractory period is the minimum possible elapsed time between the basic stimulus and additional stimulus in which a renewed contraction can be triggered. The extent of the prolongation of the functional refractory period is a measurement of the antiarrhythmic effectiveness of the substances according to the invention. The functional refractory period is determined by testing on the electrically stimulated preparation at what elapsed time from the preceding contraction a renewed contraction can be triggered by additional electrical stimuli.
# The hearts were removed from freshly sacrificed rats (Sprague-Dawley, Charles-River, Germany). The left atria were isolated and fastened to force transducers in a temperature-controlled (30° C.), gasified (O2 95%, CO2 5%) organ bath which was filled with modified Tyrode solution (all values in mM: NaCl 137; KCl 2.7; CaCl2 1.8; MgCl2 0.8; NaHCO3 11.9; NaH2PO4 0.6; glucose 5). In order to trigger regular contractions, the preparations were electrically stimulated (rectangular pulses, pulse magnitude 3.5× threshold stimulus, pulse width 1.5 ms, frequency 1 Hz). Initially, the initial value of the functional refractory period was determined by applying extra pulses in addition to the basic stimulus, the elapsed time from the preceding basic stimulus being shortened until no further additional contraction could be triggered. Then the cumulative addition of increasing concentrations (0.1-32 μM) of the substances of Formula I took place at intervals of 20 min. each, the refractory period being determined again in each case 18 min. after the addition had taken place. Before the measurement, stock solutions of the test substances (3.2 and 0.32 mM in 100% DMSO) were prepared. In order to achieve the desired final concentrations of the substances (0.1-32 μM) in the organ bath (volume 25 or 100 ml), corresponding volumes of these stock solutions were then poured into the organ bath.
# In each case the prolongation of the functional refractory period (FRP) in the left atrium of the rats' hearts in milliseconds observed after the addition of 10 or 32 μM of the respective substance of Formula I to the atrial preparations was given as characteristic variable.
row,Structure (SMILES),FRP prolongation
1,"CCc1ccc(S(=O)(=O)NC2c3cc(CC(=O)N4CCN(Cc5ccccc5)CC4)ccc3OC(C)(C)C2O)cc1 (stereo not drawn) [Example 10, N-{6-[2-(4-benzyl-piperazin-1-yl)-2-oxo-ethyl]-3-hydroxy-2,2-dimethyl-chroman-4-yl}-4-ethyl-benzenesulfonamide]",24 (10 μM) ms
2,"CC(C)CCN([C@@H]1c2cc(CC(=O)NCCN3CCCCC3)ccc2OC(C)(C)[C@H]1O)S(=O)(=O)c1ccc(I)cc1 [Example 3, (3S, 4R)-2-{3-Hydroxy-4-[(4-iodobenzenesulfonyl)-(3-methylbutyl)amino]-2,2-dimethylchroman-6-yl}-N-(2-piperidin-1-ylethyl)acetamide]",15 (10 μM) ms
3,"Cc1ccc(S(=O)(=O)N(CC2CC2)[C@@H]2c3cc(CC(=O)N4CCN(Cc5ccccc5)CC4)ccc3OC(C)(C)[C@H]2O)cc1 [Example 7, (3S, 4R)-N-{6-[2-(4-Benzylpiperazin-1-yl)-2-Oxoethyl]-3-Hydroxy-2,2-Dimethylchroman-4-yl}-N-Cyclopropylmethyl-4-Methylbenzenesulfonamide]",13 (10 μM) ms
4,CCCc1ccc(S(=O)(=O)N[C@@H]2c3cc(CC(=O)N4CCN(Cc5ccccc5)CC4)ccc3OC(C)(C)[C@H]2O)cc1 [Example 1],15 (10 μM) ms

# Same assay, conditions: 32 μM
row,Structure (SMILES),FRP prolongation
1,"CCc1ccc(S(=O)(=O)N[C@@H]2c3cc(CC(=O)N4CCN(Cc5cccnc5)CC4)ccc3OC(C)(C)[C@H]2O)cc1 [Example 8, 4-Ethyl-N-((3S,4R)-3-Hydroxy-2,2-Dimethyl-6-{2-Oxo-2-[4-(pyridin-3-ylmethyl)piperazin-1-yl]ethyl}-3,4-dihydro-2H-Chromen-4-yl)Benzenesulfonamide]",22 (32 μM) ms
2,COc1cccc(S(=O)(=O)N(CCC(C)C)[C@@H]2c3cc(CC(=O)NCC4CN(Cc5ccccc5)CCO4)ccc3OC(C)(C)[C@H]2O)c1 (stereo partly drawn) [Example 6],16 (32 μM) ms

# Target: T1, Kv1.3-potassium channel (Homo sapiens, UniProt P22001)
# T1 construct: expressed in transfected cells; host or cells: CHO (Chinese hamster ovary) cells, stably transfected with a Kv1.3 plasmid
# T1 sequence (P22001 whole entry): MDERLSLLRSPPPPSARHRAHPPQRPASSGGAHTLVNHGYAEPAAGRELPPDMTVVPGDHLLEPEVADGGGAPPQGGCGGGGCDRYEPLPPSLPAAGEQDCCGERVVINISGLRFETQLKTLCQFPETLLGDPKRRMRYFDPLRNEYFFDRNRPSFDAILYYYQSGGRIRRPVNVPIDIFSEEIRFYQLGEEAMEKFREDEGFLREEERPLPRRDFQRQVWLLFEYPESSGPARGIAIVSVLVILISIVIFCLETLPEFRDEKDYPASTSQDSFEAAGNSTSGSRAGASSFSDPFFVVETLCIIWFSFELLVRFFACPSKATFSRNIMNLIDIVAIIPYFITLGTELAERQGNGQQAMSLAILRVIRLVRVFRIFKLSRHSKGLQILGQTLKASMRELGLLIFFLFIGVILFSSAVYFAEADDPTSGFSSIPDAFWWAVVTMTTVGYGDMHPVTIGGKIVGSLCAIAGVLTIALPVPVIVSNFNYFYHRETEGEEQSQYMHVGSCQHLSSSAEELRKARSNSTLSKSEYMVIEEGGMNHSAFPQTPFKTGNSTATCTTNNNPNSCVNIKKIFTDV
# Test: Kv1.3-potassium channel-blocking effect in vitro (membrane potential-sensitive dye fluorescence in transfected CHO cells)
# Format: cell-based
# Details: 10 μM test substance; CHO cells transfected with Kv1.3; relative to margatoxin
# Description: In this test model, known ovary cells of the Chinese hamster (=CHO) are used which are stably transfected with the Kv1.3-potassium channel The blockade of the cell-inherent Kv1.3-potassium channel activity in the transfected cells is accompanied by a positive shift in the membrane potential from approx. −40 mV to −30 mV, whereas in the wild-type CHO cells investigated in parallel no significant shift in the membrane potential is triggered. A change in the membrane potential is thus connected to the reduction in the Kv1.3-potassium channel activity. By blocking the Kv1.3-potassium channels e.g. with substances of Formula I and the resulting change in the membrane potential, an accumulation of a membrane potential-sensitive fluorescent dye in intracellular compartments of the ovary cells and ultimately increasing fluorescence occurs. The change in the membrane potential of the ovary cells is therefore measured indirectly via the increase in fluorescence of the membrane potential-sensitive dyes.
# The cells were transfected with the Kv1.3 plasmid in known manner with a commercially obtainable transfection reagent (DMRIE-C from Gibco BRL, Germany). The successful transfection was verified by means of immunofluorescence and by “patch-clamp” investigations of the potassium ion current. The fluorescence measurements were performed on a Tecan Safire fluorescence reader from Tecan, Germany. In each case, the increase in the fluorescent intensity caused by the blockade of the Kv1.3-potassium channels in the ovary cells with substances of Formula I in a concentration of 10 μM was determined as characteristic variable. The increase in the fluorescent intensity was given in each case in percent (%) compared with an increase in the fluorescent intensity caused by the reference substance margatoxin. Margatoxin is known as a selective Kv1.3-potassium channel blocker (see e.g. M. Garcia-Calvo et al., J. Biol. Chem. 268 (1993) 18866-18874).
row,Structure (SMILES),Increase in the fluorescent intensity (% margatoxin)
1,"CCC(CC)CN([C@@H]1c2cc(CC(=O)N[C@@H]3CCN(Cc4ccccc4)C3)ccc2OC(C)(C)[C@H]1O)S(=O)(=O)c1cccc(OC)c1 [Example 4, (3S, 4R)-N-(1-Benzylpyrrolidin-3R-yl)-2-{4-[(2-Ethylbutyl)-(3-Methoxybenzenesulfonyl)Amino]-3 -Hydroxy-2,2-Dimethylchroman-6-yl}Acetamide]",41.8
2,COc1cccc(S(=O)(=O)N(CCC(C)C)[C@@H]2c3cc(CC(=O)NCC4CN(Cc5ccccc5)CCO4)ccc3OC(C)(C)[C@H]2O)c1 (stereo partly drawn) [Example 6],59.9
3,"CCCCN(CC)CCNC(=O)Cc1ccc2c(c1)[C@@H](N(CC(CC)CC)S(=O)(=O)c1ccc(I)cc1)[C@H](O)C(C)(C)O2 [Example 5, (3S, 4R)-N-[2-(Butylethylamino)Ethyl]-2-{4-[(2-Ethylbutyl)-(4-iodobenzenesulfonyl)Amino]-3-Hydroxy-2,2-dimethylchroman-6-yl)Acetamide]",39.8
